Measured values reported in patent US8187646B2, “Nucleotide pyrophosphatase inhibitor and coenzyme regenerating systems” (Puratos N.V., priority 2004, dated 2012).
“Also recorded” adds a separate entry of the source.

Key:
[1] = system: wheat flour nucleotide pyrophosphatase (NPP); assay: In vitro NPP inhibition studies (NAD+ degradation by wheat flour extract); assay type: biochemical; conditions: for ability to inhibit NPP in wheat flour: ADP about 1-2 mM, phosphates tested at 10 g/l; for reactivation of the inhibited enzyme by divalent metal ions: addition of divalent ions (Mg2+, Mn2+; excess MgCl2, MnCl2, ZnCl2, CaCl2)
Procedure: As an example of nucleotide pyrophosphatase inhibition, pyrophosphate was tested.
To perform in vitro nucleotide pyrophosphatase (NPP) inhibition studies, a reaction mixture of 5 ml was made containing 2.5 ml of flour extract (see Example 12), 1.5 ml of NAD^+ or NADH solution and 1 ml of potential inhibitor. The coenzymes and inhibitors were dissolved in a 0.2 M acetate buffer at pH 5.5. The final coenzyme concentration was 0.5 mM, unless otherwise mentioned. The different phosphates ([…] (Na2H2P2O7), sodium metaphosphate ((NaPO3)n), pentasodium tripolyphosphate (Na5P3O10), tetrasodium pyrophosphate (Na4P2O7) and dicalcium pyrophosphate (CaH2P2O7)) were tested in a concentration of 10 g/l. For the reactivation experiments with metal ions and to test a synergetic effect of glycine with EDTA the reaction mixture was adapted: 500 μl of inhibitor was added together with 500 μl of cation or glycine instead of 1 ml inhibitor. For the reactivation experiments with metal ions, the chloride forms of the cations were used, i.e. MgCl2, MnCl2, ZnCl2 and CaCl2.
A flour extract was prepared based on the method described by Honold et al. (1966, Cereal Chemistry 43:517-528). To 5 g of flour, 25 ml of an aqueous 12.5% sucrose solution was added. The solution was homogenised with an UltraTurrax mixer (IKA Werke, Janke & Kunkel GmbH & CoKG, Staufen, Germany). This homogenised flour suspension was centrifuged during 5 minutes at 1000 rpm (77 g) (SS34 rotor, Sorvall RC 5B centrifuge). The supernatant was recovered and filtrated through Whatman No. 1 filter paper. The filtrate was used as crude flour extract. All steps were carried out between 0° C. and 5° C.

[2] = system: nicotinamide coenzymes NAD+/NADH in dough systems; assay: Coenzyme (NAD+/NADH) concentrations in dough systems (mini doughs); set-up: species or system wheat; conditions: 0.3 g calcium pyrophosphate per 100 g flour; before and after 60 minutes dough resting at 25° C.
Procedure: The oxidised (NAD^+) and reduced (NADH) form of the nicotinamide coenzymes were extracted from doughs with an acid and alkaline extraction method respectively.
The coenzymes, NAD^+ and NADH, can be determined with an isocratic reversed phase HPLC method on a Varian Prostar HPLC system. Separation of the coenzymes NAD^+ and NADH was carried out on a Chromsep Microspher 3C18 column (3 μm particle size, 4.6×100 mm, Chrompack). The mobile phase was 96% 0.15 M citrate-sodium phosphate buffer (pH 6.8) containing 1 mM EDTA, and 4% methanol (30° C.). The flow rate was 0.5 ml/min and detection was accomplished by UV absorption at 260 nm (Varian Prostar UV 320).
All samples were filtrated (Sartorius Minisart RC15, 0.45 μm) and sample injection (20 μl) was accomplished with a Varian Prostar 410 autosampler. The nucleotide concentration was measured by the peak area of the chromatogram with calibration curves, which were prepared using a known amount of coenzymes.
Baking tests were performed with mini doughs (150 g).
The doughs were kneaded with a pin mixer during 4.5 minutes, after which they were incubated during 20 minutes at 25° C. The dough was sheeted and incubated again at 25° C. during 20 minutes, after which it was sheeted and incubated for 50 minutes at 36° C. and at a relative humidity of 80%. […] Bread volume after baking was determined by the rapeseed displacement method.

[3] = inhibitor at 4 mM, in vitro tests

`O[C@H](CS)[C@H](O)CS` (racemic) [DTT, dithiothreitol] was tested, and the “inhibition of the NPP” value [1, 3] was “inhibited the NPP at some extent”.
`Nc1ncnc2c1ncn2[C@@H]1O[C@H](COP(=O)(O)OP(=O)(O)O)[C@@H](O)[C@H]1O` [ADP] was tested, and the “inhibition of the NPP” value ([1]; ADP 1 mM) was “inhibit the NPP partially” and the “ability to inhibit NPP in wheat flour” value [1] was “able to inhibit”.
With `O=P([O-])(O)OP(=O)([O-])O.[Ca+2]` [Ca-pyrophosphate, CaH2P2O7] the “inhibition of NAD+ degradation by a wheat flour extract” value (“inhibition of NAD+ degradation” below) ([1]; 50 to 100 mM Ca-pyrophosphate) was “completely inhibit”.
`O=C(O)CN(CCN(CC(=O)O)CC(=O)O)CC(=O)O` [EDTA] was tested, and the “reactivation of the inhibited enzyme by divalent metal ions” value [1] was “reactivated partially” and the “inhibition of the wheat flour NPP” value ([1]; from a concentration of 4 mM EDTA on, in vitro) was “complete inhibition”.
For `N[C@@H](CS)C(=O)O` [L-cysteine], the “inhibition of the NPP” value [1, 3] was “inhibited the NPP at some extent”.
For `O=P(O)(O)OP(=O)(O)O` [pyrophosphate], the “inhibition of NAD+ degradation” value ([1]; 10 mM pyrophosphate) was “Partial inhibition”, the “inhibition of NAD+ degradation” value ([1]; 20 mM pyrophosphate) was “Partial inhibition” and the “reactivation of the inhibited enzyme by divalent metal ions” value [1] was “This is not the case; also recorded: could not reactivate the enzyme”. For the same molecule, the “mode of inhibition of wheat flour nucleotide pyrophosphatase” value ([1]; suggested: no reactivation by metal ions, pyrophosphate split into phosphate by flour extract) was “competitive inhibitor” and the “coenzyme concentrations (NAD+ and NADH) in dough” value [2] was “higher coenzyme concentrations were observed”.
`O=P(O)(O)OP(=O)(O)O` [sodium pyrophosphate, Na2H2P2O7] was tested, and the “inhibition of the NPP enzyme” value ([1]; 100 mM sodium pyrophosphate) was “completely inhibited”.
In the case of `O=P([O-])([O-])OP(=O)([O-])OP(=O)([O-])[O-].[Na+].[Na+].[Na+].[Na+].[Na+]` [tripolyphosphate, pentasodium tripolyphosphate (Na5P3O10)], the “ability to inhibit NPP in wheat flour” value [1] is reported as “able to inhibit”.
For sodium metaphosphate ((NaPO3)n), the “ability to inhibit NPP in wheat flour” value [1] was “able to inhibit”.
